In BindingDB's records for patent US20250129067 (Progentos Therapeutics, 2025):

Biological target: Platelet-derived growth factor receptor alpha (Homo sapiens, UniProt P16234)
Assay: PDGFRα Kinase Assay
Protocol: The PDGFRα enzyme assays were conducted per the manufacturer's directions (Promega PDGFRα Kinase Enzyme System and ADP Glo Assay Cat #V8011). […] 20 ng of purified PDGFRα protein was added to the test article. […] ADP-Glo was added to halt the kinase reaction and deplete the remaining ATP. Kinase detection reagent, containing luciferase and luciferin, was used to convert the ADP signal into luminescence. Luminescence was measured using a Molecular Devices Spectramax ID5 and compared to a standard curve to determine kinase activity. IC50s were calculated using Prism 9, Graphpad software.

Chain of Platelet-derived growth factor receptor alpha (P16234 whole entry): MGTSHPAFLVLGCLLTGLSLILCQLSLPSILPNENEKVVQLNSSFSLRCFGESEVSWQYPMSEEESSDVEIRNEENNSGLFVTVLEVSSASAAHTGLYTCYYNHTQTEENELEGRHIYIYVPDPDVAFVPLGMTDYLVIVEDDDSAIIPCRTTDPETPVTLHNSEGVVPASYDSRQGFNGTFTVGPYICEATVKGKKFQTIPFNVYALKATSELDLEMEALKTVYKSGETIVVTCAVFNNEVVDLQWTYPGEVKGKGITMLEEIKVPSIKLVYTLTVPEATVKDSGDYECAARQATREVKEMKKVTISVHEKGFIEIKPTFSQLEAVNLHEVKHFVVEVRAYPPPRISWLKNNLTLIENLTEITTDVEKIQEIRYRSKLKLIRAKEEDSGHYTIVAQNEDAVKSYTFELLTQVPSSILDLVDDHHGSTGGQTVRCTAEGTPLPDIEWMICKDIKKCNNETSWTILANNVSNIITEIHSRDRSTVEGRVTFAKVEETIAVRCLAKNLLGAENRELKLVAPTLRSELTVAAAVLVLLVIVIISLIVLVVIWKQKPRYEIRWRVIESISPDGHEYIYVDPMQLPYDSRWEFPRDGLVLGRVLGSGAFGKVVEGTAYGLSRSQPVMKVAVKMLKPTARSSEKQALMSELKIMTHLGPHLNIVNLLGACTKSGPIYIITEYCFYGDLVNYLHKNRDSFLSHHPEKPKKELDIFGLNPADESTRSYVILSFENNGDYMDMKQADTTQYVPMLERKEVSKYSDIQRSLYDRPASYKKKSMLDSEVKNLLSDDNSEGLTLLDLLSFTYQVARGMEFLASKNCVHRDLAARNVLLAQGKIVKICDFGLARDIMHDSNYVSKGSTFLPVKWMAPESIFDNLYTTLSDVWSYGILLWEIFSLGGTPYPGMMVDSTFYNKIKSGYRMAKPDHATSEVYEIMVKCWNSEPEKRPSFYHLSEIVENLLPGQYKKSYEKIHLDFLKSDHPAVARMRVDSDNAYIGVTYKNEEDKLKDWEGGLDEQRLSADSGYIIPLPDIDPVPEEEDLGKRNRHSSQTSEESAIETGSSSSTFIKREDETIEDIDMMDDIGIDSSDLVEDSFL

SMILES | IC50 [µM]
CN(CCCN(C)c1cnn2cc(-c3cnn(C)c3)ccc12)c1ncc(Cc2ccccc2)cn1 | > 10
Cn1cc(-c2ccn3c(N4CCN(C(=O)OC(C)(C)C)CC4)cnc3n2)cn1 [US20250129067, Compound 87] | 5.94
Cn1cc(-c2ccc3c(N4CCN(c5ncc(C(O)Cc6ccccc6)cn5)CC4)cnn3c2)cn1 (stereo not drawn) [US20250129067, Compound 167] | 0.107
